Results: US10214519B2, “Phosphatidylinositol 3-kinase inhibitors” (Gilead Sciences, Inc., priority 2016, dated 2019)

Each compound was assayed against PI3Kβ (Homo sapiens (Human), UniProt P42338) (assay: PI3K isoform TR-FRET enzymatic assay (PI3Kβ)). Details: 2× Km ATP, 30 minutes at 25° C.
Type: biochemical
How it was run: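 IC50 came from four-parameter dose-response fits, normalized between DMSO and 1 μM wortmannin controls. The read-out was TR-FRET (615/665 nm) of PIP3 displacing fluorescent PIP3 from Europium GRP-1 after 10 mM EDTA termination. Compounds were incubated with purified heterodimeric PI3Kβ for 30 min at 25° C.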

Chain of PI3Kβ (P42338 whole entry, canonical isoform): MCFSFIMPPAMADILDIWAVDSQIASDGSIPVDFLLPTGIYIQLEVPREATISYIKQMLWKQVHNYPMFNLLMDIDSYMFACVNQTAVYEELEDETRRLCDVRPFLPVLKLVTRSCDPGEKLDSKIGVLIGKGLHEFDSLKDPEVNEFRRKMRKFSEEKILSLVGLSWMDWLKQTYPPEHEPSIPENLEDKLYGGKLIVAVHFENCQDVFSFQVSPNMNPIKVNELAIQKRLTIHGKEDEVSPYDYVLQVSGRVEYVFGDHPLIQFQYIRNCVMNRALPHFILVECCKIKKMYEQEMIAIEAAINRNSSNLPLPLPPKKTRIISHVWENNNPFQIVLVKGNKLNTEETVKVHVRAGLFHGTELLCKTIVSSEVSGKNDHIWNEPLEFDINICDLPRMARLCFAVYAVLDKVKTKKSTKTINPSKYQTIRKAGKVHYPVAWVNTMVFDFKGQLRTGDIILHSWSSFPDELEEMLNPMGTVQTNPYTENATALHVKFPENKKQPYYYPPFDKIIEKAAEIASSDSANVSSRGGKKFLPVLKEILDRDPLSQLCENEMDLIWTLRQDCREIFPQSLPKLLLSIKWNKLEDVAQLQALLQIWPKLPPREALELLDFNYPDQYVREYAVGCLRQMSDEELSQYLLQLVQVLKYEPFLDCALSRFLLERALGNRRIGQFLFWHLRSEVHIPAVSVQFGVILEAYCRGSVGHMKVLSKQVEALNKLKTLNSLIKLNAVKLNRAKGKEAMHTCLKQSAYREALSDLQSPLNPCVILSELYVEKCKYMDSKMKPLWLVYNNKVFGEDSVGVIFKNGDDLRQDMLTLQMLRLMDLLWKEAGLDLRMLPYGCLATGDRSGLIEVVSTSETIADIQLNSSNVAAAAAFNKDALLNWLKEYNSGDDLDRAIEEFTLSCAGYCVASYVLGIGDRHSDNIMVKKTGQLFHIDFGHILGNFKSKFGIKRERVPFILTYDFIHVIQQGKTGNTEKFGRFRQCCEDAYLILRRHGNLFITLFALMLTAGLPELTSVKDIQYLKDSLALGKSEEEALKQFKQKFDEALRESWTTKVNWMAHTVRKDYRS
Chain of PI3Kβ (P27986 whole entry partner, canonical isoform): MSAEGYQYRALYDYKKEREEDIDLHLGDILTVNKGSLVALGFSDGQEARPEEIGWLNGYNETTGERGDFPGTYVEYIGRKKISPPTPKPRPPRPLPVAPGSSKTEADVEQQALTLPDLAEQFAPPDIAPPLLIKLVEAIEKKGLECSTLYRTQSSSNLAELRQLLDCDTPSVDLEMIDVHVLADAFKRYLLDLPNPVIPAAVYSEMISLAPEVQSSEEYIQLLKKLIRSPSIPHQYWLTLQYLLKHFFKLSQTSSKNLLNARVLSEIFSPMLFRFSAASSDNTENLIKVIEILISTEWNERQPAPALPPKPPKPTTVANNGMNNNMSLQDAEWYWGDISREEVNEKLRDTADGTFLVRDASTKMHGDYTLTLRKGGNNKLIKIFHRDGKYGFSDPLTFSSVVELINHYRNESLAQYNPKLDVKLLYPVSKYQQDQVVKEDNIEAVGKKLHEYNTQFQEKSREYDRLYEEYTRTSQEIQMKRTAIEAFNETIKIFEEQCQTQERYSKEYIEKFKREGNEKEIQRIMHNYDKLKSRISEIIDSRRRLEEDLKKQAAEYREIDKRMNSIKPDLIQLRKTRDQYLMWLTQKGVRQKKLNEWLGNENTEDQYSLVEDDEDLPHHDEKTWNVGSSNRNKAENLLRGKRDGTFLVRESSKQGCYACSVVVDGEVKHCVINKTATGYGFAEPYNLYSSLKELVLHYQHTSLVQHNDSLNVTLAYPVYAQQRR

Row | IC50 [nM] | Compound
1 | 19 | Cc1nnc(-c2cc(N3CCOCC3)cc3c2ncn3-c2ccnc3c(F)ccc(F)c23)[nH]1 [Example 44, 4-(1-(5,8-difluoroquinolin-4-yl)-4-(5-methyl-4H-1,2,4-triazol-3-yl)-1H-benzo[d]imidazol-6-yl)morpholine]
2 | 56 | Cc1nc2c(-c3nnc[nH]3)cc(N3CCOCC3)cc2n1-c1ccnc2c(F)cc(F)cc12 [Example 145, 4-[3-(6,8-difluoroquinolin-4-yl)-2-methyl-7-(4H-1,2,4-triazol-3-yl)benzimidazol-5-yl]morpholine]
3 | 6 | Cc1nc2c(-c3ncco3)cc(N3CCOCC3)cc2n1-c1ccnc2c(F)cccc12 (atropisomer, axis not shown) [Example 341, 4-[3-(8-fluoroquinolin-4-yl)-2-methyl-7-(1,3-oxazol-2-yl)benzimidazol-5-yl]morpholine]
4 | 4460 | Cc1nc2c(-c3nnc[nH]3)cc(N3CCOCC3)cc2n1-c1ccnc2c(F)ccc(Cl)c12 (atropisomer, axis not shown) [Compound 345, 4-[3-(5-chloro-8-fluoroquinolin-4-yl)-2-methyl-7-(4H-1,2,4-triazol-3-yl)benzimidazol-5-yl]morpholine]
5 | 17 | CCCc1nc2c(-c3cnc(Cl)[nH]3)cc(N3CCOCC3)cc2n1-c1ccnc2c(F)ccc(F)c12 [Example 299, 4-[7-(2-chloro-1H-imidazol-5-yl)-3-(5,8-difluoroquinolin-4-yl)-2-propylbenzimidazol-5-yl]morpholine]
6 | 15 | Cc1nnc(-c2cc(N3CCOCC3)cc3c2nc(C)n3-c2ccnc3c(Cl)c(F)ccc23)[nH]1 [Example 52, 4-(1-(8-chloro-7-fluoroquinolin-4-yl)-2-methyl-4-(5-methyl-4H-1,2,4-triazol-3-yl)-1H-benzo[d]imidazol-6-yl)morpholine]
7 | 70 | CCc1nc2c(-c3cnn[nH]3)cc(N3CCOCC3)cc2n1-c1ccnc2c(F)ccc(F)c12 [Example 376, 4-(1-(5,8-difluoroquinolin-4-yl)-2-ethyl-4-(1H-1,2,3-triazol-5-yl)-1H-benzo[d]imidazol-6-yl)morpholine]
8 | 26 | Cc1csc(-c2cc(N3CCOCC3)cc3c2nc(C2CC2)n3-c2ccnc3c(Cl)ccc(F)c23)n1 [Example 243, 4-[3-(8-chloro-5-fluoroquinolin-4-yl)-2-cyclopropyl-7-(4-methyl-1,3-thiazol-2-yl)benzimidazol-5-yl]morpholine]
9 | 65 | Fc1cccc2c(-n3c(C4CC4)nc4c(-c5nnc[nH]5)cc(N5CCOCC5)cc43)ccnc12 [Example 144, 4-[2-cyclopropyl-3-(8-fluoroquinolin-4-yl)-7-(4H-1,2,4-triazol-3-yl)benzimidazol-5-yl]morpholine]
10 | 10 | Cc1nc2c(-c3cnc(Cl)[nH]3)cc(N3CCOCC3)cc2n1-c1ccnc2c(F)ccc(F)c12 [Example 298, 4-[7-(2-chloro-1H-imidazol-5-yl)-3-(5,8-difluoroquinolin-4-yl)-2-methylbenzimidazol-5-yl]morpholin]
11 | 50 | Cc1csc(-c2cc(N3CCOCC3)cc3c2nc(C2CC2)n3-c2ccnc3c(F)ccc(F)c23)n1 [Example 237, 4-[2-cyclopropyl-3-(5,8-difluoroquinolin-4-yl)-7-(4-methyl-1,3-thiazol-2-yl)benzimidazol-5-yl]morpholine]
12 | 380 | Cc1nc(-c2cc(N3CCOCC3)cc3c2nc(C)n3-c2ccnc3c(Cl)cccc23)sc1C [Example 216, 4-[3-(8-chloroquinolin4-yl)-7-(4,5-dimethyl-1,3-thiazol-2-yl)-2-methylbenzimidazol-5-yl]morpholine]
13 | 24 | Fc1ccc(F)c2c(-n3c(CC4CC4)nc4c(-c5cnc(Cl)[nH]5)cc(N5CCOCC5)cc43)ccnc12 [Example 302, 4-[7-(2-chloro-1H-imidazol-5-yl)-2-(cyclopropylmethyl)-3-(5,8-difluoroquinolin-4-yl)benzimidazol-5-yl]morpholine]
14 | 5 | Cc1nc2c(-c3cnc(Cl)[nH]3)cc(N3CCOCC3)cc2n1-c1ccnc2c(Cl)ccc(F)c12 [Example 288, 4-[3-(8-chloro-5-fluoroquinolin-4-yl)-7-(2-chloro-1H-imidazol-5-yl)-2-methylbenzimidazol-5-yl]morpholine]

Second part, the compound before the results:

Row | Compound | IC50 [nM]
15 | Fc1ccc2c(-n3cnc4c(-c5nnc[nH]5)cc(N5CCOCC5)cc43)ccnc2c1Cl [Example 29, 4-(1-(8-chloro-7-fluoroquinolin-4-yl)-4-(4H-1,2,4-triazol-3-yl)-1H-benzo[d]imidazol-6-yl)morpholine] | 7
16 | Cc1nc2c(-c3n[nH]c(=O)o3)cc(N3CCOCC3)cc2n1-c1ccnc2cc(F)ccc12 [Example 166, 5-(1-(7-fluoroquinolin-4-yl)-2-methyl-6-morpholino-1H-benzo[d]imidazol-4-yl)-1,3,4-oxadiazol-2(3H)-one] | 480
17 | Cc1nnc(-c2cc(N3CCOCC3)cc3c2nc(C)n3-c2ccnc3c(F)ccc(F)c23)[nH]1 [Example 51, 4-(1-(5,8-difluoroquinolin-4-yl)-2-methyl-4-(5-methyl-4H-1,2,4-triazol-3-yl)-1H-benzo[d]imidazol-6-yl)morpholine] | 15
18 | Clc1cccc2c(-n3c(-c4ccncc4)nc4c(-c5nnc[nH]5)cc(N5CCOCC5)cc43)ccnc12 [Example 15, 4-(1-(8-chloroquinolin-4-yl)-2-(pyridin-4-yl)-4-(4H-1,2,4-triazol-3-yl)-1H-benzo[d]imidazol-6-yl)morpholine] | 49
19 | Cc1nc2c(-c3nnc[nH]3)cc(N3CCOCC3)cc2n1-c1cc(C(F)(F)F)nc2c(Cl)cccc12 [Example 58, 4-[3-[8-chloro-2-(trifluoromethyl)quinolin-4-yl]-2-methyl-7-(4H-1,2,4-triazol-3-yl)benzimidazol-5-yl]morpholine] | 62
20 | Clc1cccc2c(-n3c(-c4ccccn4)nc4c(-c5nnc[nH]5)cc(N5CCOCC5)cc43)ccnc12 [Example 115, 4-[3-(8-chloroquinolin-4-yl)-2-pyridin-2-yl-7-(4H-1,2,4-triazol-3-yl)benzimidazol-5-yl]morpholine] | 14
21 | CCCc1nc2c(-c3cnc(Cl)[nH]3)cc(N3CCOCC3)cc2n1-c1ccnc2c(F)cccc12 [Example 305, 4-[7-(2-chloro-1H-imidazol-5-yl)-3-(8-fluoroquinolin-4-yl)-2-propylbenzimidazol-5-yl]morpholine] | 13
22 | Cc1nc2c(-c3cccs3)cc(N3CCOCC3)cc2n1-c1ccnc2c(Cl)cccc12 [Example 271, 4-[3-(8-chloroquinolin-4-yl)-2-methyl-7-thiophen-2-ylbenzimidazol-5-yl]morpholine] | 46
23 | Cc1nnc(-c2cc(N3CCOCC3)cc3c2ncn3-c2ccnc3c(Cl)c(F)ccc23)[nH]1 [Example 40, 4-(1-(8-chloro-7-fluoroquinolin-4-yl)-4-(5-methyl-4H-1,2,4-triazol-3-yl)-1H-benzo[d]imidazol-6-yl)morpholine] | 22
24 | Cc1ncc(-c2cc(N3CCOCC3)cc3c2nc(C)n3-c2ccnc3c(Cl)cccc23)s1 [Example 297, 4-[3-(8-chloroquinolin-4-yl)-2-methyl-7-(2-methyl-1,3-thiazol-5-yl)benzimidazol-5-yl]morpholine] | 3800
25 | Cc1nc2c(-c3ccc(C#N)s3)cc(N3CCOCC3)cc2n1-c1ccnc2c(Cl)cccc12 [Example 273, 5-[1-(8-chloroquinolin-4-yl)-2-methyl-6-morpholin-4-ylbenzimidazol-4-yl]thiophene-2-carbonitrile] | 2600
26 | Cc1nc2c(-c3cc[nH]n3)cc(N3CCOCC3)cc2n1-c1ccnc2c(Cl)cccc12 [Example 262, 4-[3-(8-chloroquinolin-4-yl)-2-methyl-7-(1H-pyrazol-3-yl)benzimidazol-5-yl]morpholine] | 27
27 | Cc1cnc2ccccc2c1-n1c(C)nc2c(-c3nnc[nH]3)cc(N3CCOCC3)cc21 [Example 65, 4-[2-methyl-3-(3-methylquinolin-4-yl)-7-(4H-1,2,4-triazol-3-yl)benzimidazol-5-yl]morpholine] | 24
28 | COCCc1nc2c(-c3nnc[nH]3)cc(N3CCOCC3)cc2n1-c1ccnc2c(F)cccc12 [Example 42, 4-(1-(8-fluoroquinolin-4-yl)-2-(2-methoxyethyl)-4-(4H-1,2,4-triazol-3-yl)-1H-benzo[d]imidazol-6-yl)morpholine] | 20
29 | Cc1cc(-n2c(C)nc3c(-c4nc(C)n[nH]4)cc(N4CCOCC4)cc32)c2cccc(C(F)(F)F)c2n1 [Example 77, 4-[2-methyl-7-(3-methyl-1H-1,2,4-triazol-5-yl)-3-[2-methyl-8-(trifluoromethyl)quinolin-4-yl]benzimidazol-5-yl]morpholine] | 97
30 | CCc1nc2c(-c3cnc[nH]3)cc(N3CCOCC3)cc2n1-c1cc(C)nc2c(F)cccc12 [Example 211, 4-[2-ethyl-3-(8-fluoro-2-methylquinolin-4-yl)-7-(1H-imidazol-5-yl)benzimidazol-5-yl]morpholine] | 22
31 | Cc1nc2c(-c3nnc[nH]3)cc(N3CCOCC3)cc2n1-c1c(F)cnc2ccccc12 [Example 153, 4-(1-(3-fluoroquinolin-4-yl)-2-methyl-4-(4H-1,2,4-triazol-3-yl)-1H-benzo[d]imidazol-6-yl)morpholine] | 120
32 | Cc1nc2c(-c3cncn3C)cc(N3CCOCC3)cc2n1-c1ccnc2c(Cl)cccc12 [Example 202, 4-[3-(8-chloroquinolin-4-yl)-2-methyl-7-(3-methylimidazol-4-yl)benzimidazol-5-yl]morpholine] | > 10000
33 | Cc1cc(-n2c(C)nc3c(-c4nc(C)n[nH]4)cc(N4CCOCC4)cc32)c2ccc(F)cc2n1 [Example 79, 4-[3-(7-fluoro-2-methylquinolin-4-yl)-2-methyl-7-(3-methyl-1H-1,2,4-triazol-5-yl)benzimidazol-5-yl]morpholine] | 110
34 | Cc1nc2c(-c3cccc(C(N)=O)c3)cc(N3CCOCC3)cc2n1-c1ccnc2c(-c3cccc(C(N)=O)c3)cccc12 [Example 322, 3-[4-[4-(3-carbamoylphenyl)-2-methyl-6-morpholin-4-ylbenzimidazol-1-yl]quinolin-8-yl]benzamide] | > 10000
